In patent US5140025A, “Thienotricylene for the treatment of bronchial diseases” (BYK Gulden Lomberg Chemische Fabrik GmbH, priority 1987, dated 1992):

How the values were obtained:
[1] = test system: modified Shay rat (lesion formation and acid secretion); assay: Antiulcerogenic and secretion-inhibiting action on the modified Shay rat; assay type: in vivo; details: for Gastric protective action, reduction of lesion index, about ED50 / Inhibition of acid secretion, reduction of HCl secretion, about ED50: modified Shay rat, i.v., interpolated dose, 4 h, N=24
Source text: The excellent gastric protective action and the gastric secretion-inhibiting action of the compound (+)-4,9-dihydro-3-methyl-4-[(4-methyl-1-piperazinyl)-acetyl]-10H-thieno[3,4-b][1,5]benzodiazepin-10-one (=compound 1 in Table 8 below) in comparison with the corresponding (-)-enantiomer (=compound 3) and with the racemate (=compound 2) can be detected in studies on the modified Shay rat. The effect of the stated compounds after intravenous (i.v.) administration on the formation of lesions and the acid secretion in the modified Shay rat is shown in Table 8 below.
Ulcers are provoked in rats (female, 180-200 g, 4 animals per cage on high grids) which have fasted for 24 hours, by pylorus ligature (under diethyl ether anaesthesia) and oral administration of 100 mg/10 ml/kg of acetylsalicylic acid. The substances to be tested are administered intravenously (1 ml/kg) directly after the pylorus ligature. The wound is closed by means of Michel clamps. 4 hours afterwards, the animals are sacrificed under anaesthesia with ether by Atlas dislocation, and resection of the stomach.
The stomach is opened along the greater curvature and clamped to a cork sheet, the amount of secreted gastric juice (volume) is determined first and its HCl content (titration with sodium hydroxide solution) being determined subsequently. The number and size (=diameter) of ulcers present are determined using a stereomicroscope, under 10×magnification. The product of severity (according to the following point scale) and number of ulcers serves as an individual lesion index.
The reduction in the means lesion index of each treated group compared with the control group (=100%) serves as a measure of the antiulcerogenic effect. The ED50 is the dose which reduces the mean lesion index or the HCl secretion by 50% compared with the control.

M1 receptor (ganglionic) = assay: Receptor affinity, electrically stimulated rabbit vas deferens in organ bath; details: vas deferens of the rabbit, agonist McN-A-343, Schild slope normalised to 1.00
Description: Isometric contractions (HSE force transducer, K-30; tilt and zones, BD-9 chart recorder) of isolated seminal duct sections of rabbits (male, white New Zealand rabbits, 2.5-3.5 kg) were recorded in an organ bath (10 ml, 31° C., gassing with carbogen, initial tension of the organs 0.75 g) under electrical stimultion (HSE stimulator; hook-shaped Pt electrode 1 cm below the water surface of the bath; 30 V, 0.5 ms, 0.05 Hz). After an equilibration time of 30 minutes, cumulative dose/response curves of McN-A-343 (10^-7 -2×10^-6 M) were recorded simultaneously on 8 organ sections in each case (control curves), using the technique described by van Rossum (1963). After 3 control curves, a fixed concentration of the agonist (for example 5×10^-7, 10^-6, 3×10^-6, 10^-5 or 3×10^-5 M) per organ section was applied and, after stabilisation of the effect, increasing concentrations of the agonist to be tested were added. The nutrient solution used had the following composition (mM): NaCl 118, KCl 4.7, CaCl2 ·2H2 O 2.5, MgSO4 ·7H2 O 0.6, KH2 PO 4 1.2, NaHCO3 25.0 and glucose 11.1. In order to block α2 -adrenoreceptors, the nutrient solution additionally contained 10^-6 M yohimbine.

[2] = test system: acetylcholine-induced bronchospasm; assay: Acetylcholine-induced bronchospasm in anaesthetised, spontaneously breathing guinea pigs, intravenous administration; assay type: in vivo, guinea pig (Pirbright White); details: for Mean bronchospasmolytic activity, percentage increase of Vmaxe vs control spasm / Mean bronchospasmolytic activity, percentage increase of tidal volume (TV) vs control spasm: 0-60 min; for Mean bronchospasmolytic activity, percentage increase of Vmaxe vs control spasm / Mean bronchospasmolytic activity, percentage increase of tidal volume (TV) vs control spasm / Bronchospasmolytic activity, percentage increase of Vmaxe vs control spasm / Bronchospasmolytic activity, percentage increase of tidal volume (TV) vs control spasm: x±SEM, N=10; for Bronchospasmolytic activity, percentage increase of Vmaxe vs control spasm / Bronchospasmolytic activity, percentage increase of tidal volume (TV) vs control spasm: at 60 min; for ED50 of bronchospasmolytic activity, TV / ED50 of bronchospasmolytic activity, Vmaxe: at time 60 min after administration; for ED50 of bronchospasmolytic activity, TV / ED50 of bronchospasmolytic activity, Vmaxe / ED50 of mean bronchospasmolytic activity, TV / ED50 of mean bronchospasmolytic activity, Vmaxe: 60 min; for ED50 of mean bronchospasmolytic activity, TV / ED50 of mean bronchospasmolytic activity, Vmaxe: mean activity 0-60 min
Source text: Effect of Intravenously Administered Telenzepine on Acetylchline-Induced Bronchospasms in Anaesthetised, Spontaneously Breathing Guinea Pigs
Method for simultaneously recording pharmacodynamic or toxic effects on interior sensitive receptors and the respiration of guinea pigs (U. Kilian, E. Muller, E. Ch. Dittmann and J. Hamacher, Arzneim.-Forsch. 28, 1699-1708, 1978).
Pirbright White, Interfauna (Tuttlingen), 350-450 g, male.
Ethylurethane 1.2 g/kg i.p. as 12.5% aqueous solution.
Pneumotachogram: Maximum flow velocities of the respiratory air during expiration (Vmaxe, "peak flow"), tidal volume (TV).
Acetylcholine as spasmogen, 0.2-0.3 μmol/kg i.v., dissolved in 0.9% NaCl.
-10 min control spasm, 0 min administration of substance, +2, +10, +20, +30, +60 min test spasms.
Determination of the effect of telenzepine on the parameters (mean and standard error of mean, n=10) and calculation of the bronchospasmolytic activity from this as percentage inhibition of the acetylcholine-induced decrease of Vmaxe and TV by means of time/effect curves. Computation of a dose/response curve of the mean bronchospasmolytic activity during the observation time (0-60 min) from the areas under the time/effect curves and reading of 1 h ED50 values. Determination of a dose/response curve of the bronchospasmolytic activity at time 60 min and reading ED50 values.

M2 receptor (cardiac) = biological target: T1, M2 receptor (cardiac) (Rattus norvegicus, UniProt P10980); assay: Receptor affinity, electrically stimulated left atrium of the rat; details: agonist carbachol, Schild slope normalised to 1.00, read-out: pA2 ± SEM, M2 receptor (cardiac) (converted)
T1 construct: isolated, left atria of rats (male 250-350 g); from tissue; host or cells: rat left atrium (isolated, male rats 250-350 g)
T1 sequence (P10980 1-466): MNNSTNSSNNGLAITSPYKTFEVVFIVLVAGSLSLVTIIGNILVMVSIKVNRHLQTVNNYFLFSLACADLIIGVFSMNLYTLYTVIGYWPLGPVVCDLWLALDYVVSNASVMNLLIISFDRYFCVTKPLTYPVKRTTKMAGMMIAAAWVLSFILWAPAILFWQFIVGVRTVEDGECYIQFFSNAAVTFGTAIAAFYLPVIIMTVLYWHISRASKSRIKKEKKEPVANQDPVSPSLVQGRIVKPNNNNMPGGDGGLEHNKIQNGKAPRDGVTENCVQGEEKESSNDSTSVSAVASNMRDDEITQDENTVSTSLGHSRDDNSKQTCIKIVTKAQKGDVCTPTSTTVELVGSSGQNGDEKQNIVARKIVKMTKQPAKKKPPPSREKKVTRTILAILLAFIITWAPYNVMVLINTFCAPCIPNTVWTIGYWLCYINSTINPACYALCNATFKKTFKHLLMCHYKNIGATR
Source text: The affinity of (±)-4,9-dihydro-3-methyl-4-[(4-methyl-1-piperazinyl)-acetyl]-10H-thieno[3,4-b][1,5]benzodiazepin-10-one (telenzepine, compound 2 in Table 7) and its conformers [(+)-enantiomer=compound 1, (-)-enantiomer=compound 3] to muscarinic M1 (ganglionic type) and M2 (cardiac type) receptors was investigated by the following methods:
Electrically Stimulated Left Atrium of the Rat (Eltze et al., 1985, Europ. J. Pharmacol. 112, 211-224).
Isometric contractions (HSE force transducer, K-30; Watanabe Linear Corder Mark 5) of isolated, left atria of rats (male 250-350 g) were recorded in an organ bath (10 ml, Tyrode nutrient solution, 31° C., gassing with carbogen, initial tension of the organs 0.25 g) under electrical stimulation (HSE stimulator; hook-shaped Pt electrodes at the base of the bath and immersed, annular Pt electrodes 1 cm below the water surface of the bath; 7 V, 3 ms, 2 Hz). After an equilibration time of 30 minutes, cumulative dose/response curves of carbachol (10^-8 -10^-6 M, in the presence of the antagonist also up to 10^-5 or 10^-4 M) were recorded simultaneously on 4 organs in each case by the technique described by van Rossum (1963). The substance to be tested was added to the organ baths 20 minutes before application of the carbachol. The pauses between the individual dose/response curves were 30-45 minutes.
The Tyrode nutrient solution used had the following composition (mM): NaCl 130, KCl 2.0, CaCl2 ·2H2 O 1.8, MgCl2 ·6H2 O 0.98, NaHCO3 12.0, NaH2 PO4 0.42 and glucose monohydrate 5.6. pA2 values (-log of the molar dissociation constants of the competitive antagonist-receptor complex) were determined by linear regression using the Schild plot: pA2 =-log [B/(x-1)], (Arunlakshana and Schild, 1959).
Table 7 below gives pA2 values of the substances, for which the slope of the regression lines for theoretically competitive antagonism have been normalised to 1.00 (Tallarida et al., 1979).

Cc1scc2c1N(C(=O)CN1CCN(C)CC1)c1ccccc1NC2=O [(+)-telenzepine, (+)-4,9-dihydro-3-methyl-4-[(4-methyl-1-piperazinyl)-acetyl]-10H-thieno[3,4-b][1,5]benzodiazepin-10-one]
Gastric protective action, reduction of lesion index, about ED50 ([1]; listed as 1, 240 min): ~0.01 mg/kg i.v.
Inhibition of acid secretion, reduction of HCl secretion, about ED50 ([1]; listed as 1, 240 min): ~0.085 mg/kg i.v.
protective action with respect to stomach and intestine, doses compared with acid secretion-inhibiting doses ([1]; warm-blooded animals): observed with the administration of doses which are below the doses which inhibit acid secretion
pA2 ± SEM, M1 receptor (ganglionic) (M1 receptor (ganglionic); listed as Compound 1): 9.12 ± 0.08
Mean bronchospasmolytic activity, percentage increase of Vmaxe vs control spasm ([2]; 0.03 μmol/kg i.v.): 13 ± 4%
Mean bronchospasmolytic activity, percentage increase of tidal volume (TV) vs control spasm ([2]; 0.03 μmol/kg i.v.): 17 ± 4%
Mean bronchospasmolytic activity, percentage increase of Vmaxe vs control spasm ([2]; 0.05 μmol/kg i.v.): 21 ± 4%
Mean bronchospasmolytic activity, percentage increase of tidal volume (TV) vs control spasm ([2]; 0.05 μmol/kg i.v.): 25 ± 5%
Mean bronchospasmolytic activity, percentage increase of Vmaxe vs control spasm ([2]; 0.1 μmol/kg i.v.): 57 ± 5%
Mean bronchospasmolytic activity, percentage increase of tidal volume (TV) vs control spasm ([2]; 0.1 μmol/kg i.v.): 62 ± 5%
Mean bronchospasmolytic activity, percentage increase of Vmaxe vs control spasm ([2]; 0.5 μmol/kg i.v.): 87 ± 3%
Mean bronchospasmolytic activity, percentage increase of tidal volume (TV) vs control spasm ([2]; 0.5 μmol/kg i.v.): 92 ± 3%
Mean bronchospasmolytic activity, percentage increase of Vmaxe vs control spasm ([2]; 1 μmol/kg i.v.): 82 ± 3%
Mean bronchospasmolytic activity, percentage increase of tidal volume (TV) vs control spasm ([2]; 1 μmol/kg i.v.): 85 ± 3%
Bronchospasmolytic activity, percentage increase of Vmaxe vs control spasm ([2]; 0.03 μmol/kg i.v.): 19 ± 6%
Bronchospasmolytic activity, percentage increase of tidal volume (TV) vs control spasm ([2]; 0.03 μmol/kg i.v.): 23 ± 7%
Bronchospasmolytic activity, percentage increase of Vmaxe vs control spasm ([2]; 0.05 μmol/kg i.v.): 35 ± 7%
Bronchospasmolytic activity, percentage increase of tidal volume (TV) vs control spasm ([2]; 0.05 μmol/kg i.v.): 39 ± 7%
Bronchospasmolytic activity, percentage increase of Vmaxe vs control spasm ([2]; 0.1 μmol/kg i.v.): 61 ± 6%
Bronchospasmolytic activity, percentage increase of tidal volume (TV) vs control spasm ([2]; 0.1 μmol/kg i.v.): 64 ± 7%
Bronchospasmolytic activity, percentage increase of Vmaxe vs control spasm ([2]; 0.5 μmol/kg i.v.): 95 ± 4%
Bronchospasmolytic activity, percentage increase of tidal volume (TV) vs control spasm ([2]; 0.5 μmol/kg i.v.): 100 ± 4%
Bronchospasmolytic activity, percentage increase of Vmaxe vs control spasm ([2]; 1 μmol/kg i.v.): 88 ± 4%
Bronchospasmolytic activity, percentage increase of tidal volume (TV) vs control spasm ([2]; 1 μmol/kg i.v.): 88 ± 4%
ED50 of bronchospasmolytic activity, TV [2]: 0.07 μmol/kg i.v.
ED50 of bronchospasmolytic activity, Vmaxe [2]: 0.07 μmol/kg i.v.
dose range of dose- and time-dependent inhibition of acetylcholine-induced bronchospasm ([2]; i.v.): 0.03-1 μmol/kg i.v.
persistence of maximum effect ([2]; i.v., observation period): ≥ 1 h
ED50 of mean bronchospasmolytic activity, TV [2]: 0.08 μmol/kg i.v.
ED50 of mean bronchospasmolytic activity, Vmaxe [2]: 0.1 μmol/kg i.v.
Kb (M2 receptor (cardiac)): 21.4 nM

Cc1scc2c1N(C(=O)CN1CCN(C)CC1)c1ccccc1NC2=O [(-)-telenzepine, (-)-4,9-dihydro-3-methyl-4-[(4-methyl-1-piperazinyl)-acetyl]-10H-thieno-[3,4-b][1,5]benzodiazepin-10-one]
Inhibition (of acid secretion) following 3 mg ([1]; 3 mg (i.v.), footnote to the ED50 of HCl secretion): 46%
Gastric protective action, reduction of lesion index, about ED50 ([1]; listed as 3, 240 min): ~0.65 mg/kg i.v.
Inhibition of acid secretion, reduction of HCl secretion, about ED50 ([1]; listed as 3, 240 min): ~3.0 mg/kg i.v.
pA2 ± SEM, M1 receptor (ganglionic) (M1 receptor (ganglionic); listed as Compound 3): 6.98 ± 0.14
Mean bronchospasmolytic activity, percentage increase of Vmaxe vs control spasm ([2]; 0.1 μmol/kg i.v.): 2 ± 1%
Mean bronchospasmolytic activity, percentage increase of tidal volume (TV) vs control spasm ([2]; 0.1 μmol/kg i.v.): 0 ± 2%
Mean bronchospasmolytic activity, percentage increase of Vmaxe vs control spasm ([2]; 1 μmol/kg i.v.): 17 ± 3%
Mean bronchospasmolytic activity, percentage increase of tidal volume (TV) vs control spasm ([2]; 1 μmol/kg i.v.): 20 ± 5%
Mean bronchospasmolytic activity, percentage increase of Vmaxe vs control spasm ([2]; 5 μmol/kg i.v.): 65 ± 4%
Mean bronchospasmolytic activity, percentage increase of tidal volume (TV) vs control spasm ([2]; 5 μmol/kg i.v.): 74 ± 4%
Mean bronchospasmolytic activity, percentage increase of Vmaxe vs control spasm ([2]; 10 μmol/kg i.v.): 79 ± 2%
Mean bronchospasmolytic activity, percentage increase of tidal volume (TV) vs control spasm ([2]; 10 μmol/kg i.v.): 87 ± 2%
Mean bronchospasmolytic activity, percentage increase of Vmaxe vs control spasm ([2]; 30 μmol/kg i.v.): 89 ± 3%
Mean bronchospasmolytic activity, percentage increase of tidal volume (TV) vs control spasm ([2]; 30 μmol/kg i.v.): 98 ± 3%
Bronchospasmolytic activity, percentage increase of Vmaxe vs control spasm ([2]; 0.1 μmol/kg i.v.): 1 ± 1%
Bronchospasmolytic activity, percentage increase of tidal volume (TV) vs control spasm ([2]; 0.1 μmol/kg i.v.): -3 ± 3%
Bronchospasmolytic activity, percentage increase of Vmaxe vs control spasm ([2]; 1 μmol/kg i.v.): 18 ± 3%
Bronchospasmolytic activity, percentage increase of tidal volume (TV) vs control spasm ([2]; 1 μmol/kg i.v.): 22 ± 5%
Bronchospasmolytic activity, percentage increase of Vmaxe vs control spasm ([2]; 5 μmol/kg i.v.): 77 ± 5%
Bronchospasmolytic activity, percentage increase of tidal volume (TV) vs control spasm ([2]; 5 μmol/kg i.v.): 88 ± 6%
Bronchospasmolytic activity, percentage increase of Vmaxe vs control spasm ([2]; 10 μmol/kg i.v.): 77 ± 3%
Bronchospasmolytic activity, percentage increase of tidal volume (TV) vs control spasm ([2]; 10 μmol/kg i.v.): 89 ± 3%
Bronchospasmolytic activity, percentage increase of Vmaxe vs control spasm ([2]; 30 μmol/kg i.v.): 88 ± 4%
Bronchospasmolytic activity, percentage increase of tidal volume (TV) vs control spasm ([2]; 30 μmol/kg i.v.): 94 ± 3%
ED50 of bronchospasmolytic activity, TV [2]: 2.0 μmol/kg i.v.
ED50 of bronchospasmolytic activity, Vmaxe [2]: 3.2 μmol/kg i.v.
onset of efficacy ([2]; doses between 0.1 and 1 μmol/kg i.v.): significantly delayed
ED50 of mean bronchospasmolytic activity, TV [2]: 2.5 μmol/kg i.v.
ED50 of mean bronchospasmolytic activity, Vmaxe [2]: 3.1 μmol/kg i.v.
Kb (M2 receptor (cardiac)): 759 nM
